# Read-outs that look alike come from different tables or passages of the source. Starred links: 1 amine or outer side, 2 acyl side, 3 side chain; linkers in the order of their positions; H or OH if unused. Positions of bridges follow the written chain, without caps; N, C: chain ends. Non-standard residues stand in square brackets, D forms with d. Residues, ends and D or L forms follow the SMILES beside them. *: point of attachment. hTyr(3S-OH,4S-OH,3'-OSO3H) = N[C@H](C(=O)O)[C@H](O)[C@@H](O)c1ccc(O)c(OS(=O)(=O)O)c1; Orn(4R-OH,5R-OH) = O=C([C@H](C[C@@H](O)[C@@H](O)N[*:3])N[*:1])[*:2]; Pro(3S-OH,4S-Me) = C[C@H]1CN[C@H](C(=O)O)[C@H]1O; X1 = CCCCCOc1ccc(-c2cc(-c3ccc(C(=O)*)cc3)no2)cc1; Gln(3R-OH) = NC(=O)C[C@@H](O)[C@H](N)C(=O)O; Hyp = O=C(O)[C@@H]1C[C@@H](O)CN1
# Key:
# [1] = system: strain ATCC®22019 of C. parapsilosis; experiment: Sensitivity test by HCA microscopy (chitin level, Calcofluor White; cell count); assay type: cell-based, Candida parapsilosis; settings: SC medium; for decrease of the number of cells / increase of the chitin level in the wall of the cells: vs cells in the absence of antifungal agent
# Protocol: (§1) The strains of Candida were incubated beforehand at 30° C. overnight in a yeast extract medium—peptone dextrose (YPD) (1% bacto peptone, 0.5% yeast extract, 2% glucose, 1.5% agar).
# (§2) Yeast colonies were then removed from YPD medium plates and suspended in a 0.9% NaCl saline solution, in which the cell concentration was estimated by optical microscopy using Kova counting slides.
# (§3) A dilution was performed to obtain 15 ml of an inoculum at 3×10^6 CFU/ml, in a synthetic complete (SC) medium at pH 7 (2% glucose, 0.5% ammonium sulfate, 0.17% nitrogen-containing yeast base, 0.2% synthetic complete mixture, and 10% HEPES 1.5M pH 7.2) for C. albicans, C. parapsilosis, C. tropicalis and C. krusei, and in a solution of RPMI 1640 pH 7.3 (10% HEPES 1M pH 7.2) for C. glabrata, so as to reduce the formation of septa and clusters.
# (§4) 1 ml of inoculum was then added to 2 ml of antifungal solution prepared in an SC or RPMI medium depending on the species of fungus, so as to obtain a final concentration of yeast of 10^6 CFU/ml and the desired concentration of antifungal agent according to table 1.
# (§5) After homogenisation, the cultures were placed at 30° C. at 200 rpm, with the exception of cultures of C. glabrata, which were placed at 35° C. at 200 rpm, and incubated for a period of 6.5 h or 24 h.
# (§6) After incubation, 100 μl of the culture of fungi obtained above were transferred in triplicate to 96-well plates, and 2.5 μl of Calcofluor White (CFW) were added to each well so as to mark the chitin of the cell walls of the yeasts.
# (§7) A step of acquiring images by automated fluorescence microscopy (ScanR screening station, Olympus), using a 40× lens and a CFW filter, made it possible to obtain 30 images per well so as to capture enough cells to provide statistically significant data. These images were analysed by software (ScanR analysis software, Olympus). Firstly, the background noise was processed so as to improve the contrast between the fluorescence of the yeasts and background noise. A pixel threshold was then defined. Segmentation of the fluorescent elements present in each of the acquired images was then performed using an algorithm predefined in the software, making it possible to determine the limit of each element on the basis of the fluorescence intensity of said element. A size parameter was then applied to select the yeasts and eliminate the aggregates and the fluorescent debris.
# (§8) Each element then corresponding to a yeast, it was thus possible, on the basis of these elements predefined beforehand, to define the fluorescence intensity for each of the yeasts, this intensity being directly correlated with the chitin content of their wall.
# (§9) On the basis of said defined elements, it was also possible to automatically count the yeasts,
# The strain ATCC®22019 of C. parapsilosis was cultivated as described in paragraph I of the Examples section so as to obtain an inoculum at 3×10^6 CFU/ml in 15 ml of SC medium.
# (§10) 2 ml of fluconazole solution prepared in the SC medium were then added to 1 ml of this inoculum so as to obtain a final concentration of yeast of 10^6 CFU/ml and of 16 μg/ml in fluconazole.
# (§11) The inoculum was treated in the same way so as to obtain cultures of 10^6 CFU/ml and the following concentrations of fluconazole: 0.015 μg/ml, 0.031 μg/ml, 0.062 μg/ml, 0.125 μg/ml, 0.25 μg/ml, 0.5 μg/ml, 1 μg/ml, 2 μg/ml, 4 μg/ml, 8 μg/ml, 16 μg/ml.
# After incubation for 6.5 h at 30° C. with stirring at 200 rpm, 100 μl of each culture were removed and transferred to 96-well plates. This procedure was performed in triplicate, and 2.5 μl of CFW were then added to each well.
# (§12) The chitin level in the cell wall of the yeasts was then measured by […] analysis (HCA) microscopy, as described in paragraph II of the Examples section, in triplicate for each condition of concentration of fluconazole and without fluconazole. […]
# [2] = system: strain ATCC®7349 of C. tropicalis; experiment: Etest method (MIC); assay type: cell-based, Candida tropicalis; settings: for MIC: Candida tropicalis, read-out: MIC (Etest method)
# Protocol: (§13) The Etest® method is a commercial test for determining the sensitivity of a strain, most frequently used routinely in clinical mycology laboratories.
# (§14) The Etest® tests were performed according to the manufacturer's instructions. After distributing a standardised Mac Farland 0.5 inoculum (equivalent of […]) over plates of RPMI medium, said plates were incubated for 24 h at 35° C., with the exception of C. glabrata in which case the incubation was extended to 48 h so as to be able to determine the minimum inhibitory concentration (MIC).
# (§15) The results of the MICs obtained were interpreted in accordance with the tables of the CLSI (Clinical and Laboratory Standards Institute) and/or of EUCAST (European Committee on Antimicrobial Susceptibility Testing) (Arendrup M C, Cuenca-Estrella M, Lass-Flörl C, Hope W W (2014) Breakpoints for antifungal agents: an update from EUCAST focussing on echinocandins against Candida spp and triazoles against Aspergillus spp. Drug Resist Updat 16(6):81-95. doi:10.1016/j.drup.2014.01.001) (cf. Table 2 taken from Maubon D, Garnaud C, Calandra T, et al. (2014) Resistance of Candida spp. to antifungal drugs in the ICU: where are we now? Intensive Care Med. doi: 10.1007/s00134-014-3404-7) which list the clinical thresholds (CBPs) for the most common species of yeast of the genus Candida as a function of different antifungal agents, or according to the table of epidemiological thresholds (ECVs).
# [3] = system: strain ATCC®7349 of C. tropicalis; experiment: Sensitivity test by HCA microscopy (chitin level, Calcofluor White; cell count); assay type: cell-based, Candida tropicalis; settings: SC medium; for decrease of the number of cells / increase of the chitin level in the wall of the cells: vs cells in the absence of antifungal agent; for increase of the chitin level in the wall of the cells: concentration gradient of Table 1
# Protocol: as §1, §2, §3, §4, §5, §6, §7, §8, §9
# The strain ATCC®7349 of C. tropicalis was cultivated as described in paragraph I of the Examples section so as to obtain an inoculum at 3×10^6 CFU/ml in 15 ml of SC medium.
# as §10, §11
# After incubation for 24 h at 30° C. with stirring at 200 rpm, 100 μl of each culture were removed and transferred to 96-well plates. This procedure was performed in triplicate, and 2.5 μl of CFW were then added to each well.
# as §12
# [4] = system: strain ATCC®22019 of C. parapsilosis; experiment: Etest method (MIC); assay type: cell-based, Candida parapsilosis; settings: for MIC: Lodderomyces parapsilosis, read-out: MIC (Etest method)
# Protocol: as §13, §14, §15
# [5] = RPMI medium plates, 24 h at 35° C.
# [6] = 6.5 h at 30° C., concentration gradient of Table 1
# [7] = ATCC7349, RPMI medium plates, 24 h at 35° C.
# [8] = ATCC22019, RPMI medium plates, 24 h at 35° C.
compound,measurement,setting,value
"CCCCCOc1ccc(-c2cc(-c3ccc(C(=O)N[C@H]4C[C@@H](O)[C@@H](O)NC(=O)[C@@H]5[C@@H](O)[C@@H](C)CN5C(=O)[C@H]([C@H](O)CC(N)=O)NC(=O)[C@H]([C@H](O)[C@@H](O)c5ccc(O)c(OS(=O)(=O)O)c5)NC(=O)[C@@H]5C[C@@H](O)CN5C(=O)[C@H]([C@@H](C)O)NC4=O)cc3)no2)cc1 [micafungin] (X1-[Orn(4R-OH,5R-OH)]T[Hyp][hTyr(3S-OH,4S-OH,3'-OSO3H)][Gln(3R-OH)][Pro(3S-OH,4S-Me)]; lactam 1-C)",phenotype of the strain with respect to the antifungal agent (HCA),[1]; 24 h at 30° C.,"sensitive (an increase in the chitin level greater than or equal to 20% is observed compared to the chitin level of a population of cells of said fungus in the absence of antifungal agent, as well as a decrease in the number of cells of at least 0.3 log)"
same,decrease of the number of cells,[1]; 24 h at 30° C.,at least 0.3 log
same,increase of the chitin level in the wall of the cells,"[1]; 24 h at 30° C., concentration gradient up to 1 μg/ml",greater than or equal to 20%
same,MIC,"[2]; ATCC7349, 24 h",0.016 µg/mL
same,"phenotype by Etest MIC, interpretation by the EUCAST and/or CLSI tables",[2]; [5],sensitive
same,phenotype of the strain with respect to the antifungal agent (HCA),[3]; 6.5 h at 30° C.,"sensitive (an increase in the chitin level greater than or equal to 20% is observed compared to the chitin level of a population of cells of said fungus in the absence of antifungal agent, as well as a decrease in the number of cells of at least 0.3 log)"
same,decrease of the number of cells,[3]; 6.5 h at 30° C.,at least 0.3 log
same,increase of the chitin level in the wall of the cells,[3]; 6.5 h at 30° C.,greater than or equal to 20%
same,MIC,"[4]; ATCC22019, 24 h",0.19 µg/mL
same,"phenotype by Etest MIC, interpretation by the EUCAST and/or CLSI tables",[4]; [5],sensitive
OC(Cn1cncn1)(Cn1cncn1)c1ccc(F)cc1F [fluconazole],phenotype of the strain with respect to the antifungal agent (HCA),[1]; 6.5 h at 30° C.,"sensitive (an increase in the chitin level greater than or equal to 20% is observed compared to the chitin level of a population of cells of said fungus in the absence of antifungal agent, as well as a decrease in the number of cells of at least 0.3 log)"
same,decrease of the number of cells,[1]; 6.5 h at 30° C.,at least 0.3 log
same,increase of the chitin level in the wall of the cells,[1]; [6],greater than or equal to 20%
same,MIC,[2]; [7],0.38 µg/mL
same,"phenotype by Etest MIC, interpretation by the EUCAST and/or CLSI tables",[2]; [5],sensitive
same,phenotype of the strain with respect to the antifungal agent (HCA),[3]; 24 h at 30° C.,"sensitive (an increase in the chitin level greater than or equal to 20% is observed compared to the chitin level of a population of cells of said fungus in the absence of antifungal agent, as well as a decrease in the number of cells of at least 0.3 log)"
same,decrease of the number of cells,[3]; 24 h at 30° C.,at least 0.3 log
same,increase of the chitin level in the wall of the cells,[3]; 24 h at 30° C.,greater than or equal to 20%
same,MIC,[4]; [8],1 µg/mL
same,"phenotype by Etest MIC, interpretation by the EUCAST and/or CLSI tables",[4]; [5],sensitive
C[C@@H](c1ncncc1F)[C@](O)(Cn1cncn1)c1ccc(F)cc1F [voriconazole],phenotype of the strain with respect to the antifungal agent (HCA),[1]; 6.5 h at 30° C.,"sensitive (an increase in the chitin level greater than or equal to 20% is observed compared to the chitin level of a population of cells of said fungus in the absence of antifungal agent, as well as a decrease in the number of cells of at least 0.3 log)"
same,decrease of the number of cells,[1]; 6.5 h at 30° C.,at least 0.3 log
same,increase of the chitin level in the wall of the cells,[1]; [6],greater than or equal to 20%
same,MIC,[2]; [7],0.023 µg/mL
same,"phenotype by Etest MIC, interpretation by the EUCAST and/or CLSI tables",[2]; [5],sensitive
same,phenotype of the strain with respect to the antifungal agent (HCA),[3]; 6.5 h at 30° C.,"sensitive (an increase in the chitin level greater than or equal to 20% is observed compared to the chitin level of a population of cells of said fungus in the absence of antifungal agent, as well as a decrease in the number of cells of at least 0.3 log)"
same,decrease of the number of cells,[3]; 6.5 h at 30° C.,at least 0.3 log
same,increase of the chitin level in the wall of the cells,[3]; 6.5 h at 30° C.,greater than or equal to 20%
same,MIC,[4]; [8],0.023 µg/mL
same,"phenotype by Etest MIC, interpretation by the EUCAST and/or CLSI tables",[4]; [5],sensitive

# Reference: US11415513B2, “Method for determining the degree of sensitivity of a strain of fungus to an antifungal agent” (UNIVERSITE GRENOBLE ALPES, priority 2015, dated 2022)
